Source: the NIST ThermoML archive (doi:10.1016/j.fluid.2005.09.006)
± gives the expanded uncertainty stated by the source.

Settings: Liquid

vapor or sublimation pressure (253.15 K) [kPa]	vapor or sublimation pressure (263.15 K) [kPa]	vapor or sublimation pressure (273.15 K) [kPa]	vapor or sublimation pressure (283.15 K) [kPa]	vapor or sublimation pressure (293.15 K) [kPa]	vapor or sublimation pressure (303.15 K) [kPa]	vapor or sublimation pressure (313.15 K) [kPa]	vapor or sublimation pressure (323.15 K) [kPa]	Compound
1964.8 ± 49	2641.8 ± 66	3478.5 ± 86	4497.8 ± 110	5723.7 ± 140	7206.2 ± 180	–	–	O=C=O [carbon dioxide]
244.2 ± 6.2	344.7 ± 8.7	473.9 ± 12	636.3 ± 16	836.3 ± 21	1079.6 ± 27	1369.8 ± 34	1714.5 ± 43	CCC [propane]
